Test results: patent US7544814B2, “[3.2.0] Heterocyclic compounds and methods of using the same” (Nereus Pharmaceuticals, Inc., priority 2004, dated 2009)
Several values for one entry are separate records, joined by “and”; a condition that tells them apart may be missing. Equal values may be shown once. Read-outs that look alike come from different tables or passages of the source.

Key:
[1] = tested on: U266; assay: Cell growth inhibition (resazurin), U266; conditions: for EC50: 48 hours drug exposure; for cytotoxicity against U266, in words: from EC50 values
[2] = tested on: NF-κB; assay: NF-κB-mediated luciferase reporter gene assay, HEK293 NF-κB/Luc cells, TNF-α stimulation; assay type: cell-based, human; conditions: for effect on luciferase activity upon TNF-α stimulation, in words: pretreatment of NF-κB/Luc 293 cells
Method: The HEK293 NF-κB/luciferase reporter cell line is a derivative of the human embryonic kidney cell line (ATCC; CRL-1573) and carries a luciferase reporter gene under the regulation of 5× NF-κB binding sites. […] When performing the luciferase assay, the DMEM basal medium was replaced with phenol-red free DMEM basal medium and the G418 was omitted.
For NF-κB-mediated luciferase assays, HEK293 NF-κB/luciferase cells were seeded at 1.5×10^4 cells/well in 90 μl phenol-red free DMEM complete medium into Corning 3917 white opaque-bottom tissue culture plates. For Formula II-2, Formula II-4, Formula II-5A, and Formula II-18, a 400 μM starting dilution was made in 100% DMSO and this dilution was used to generate a 8-point half log dilution series. […] For Formula II-20, a 2.5 mM or 8 mM starting solution was made in 100% DMSO and the final test concentrations ranged from 6.3 μM to 2.0 nM or 20 μM to 6.3 nM, respectively. The plates were returned to the incubator for 1 hour. After 1 hr pretreatment, 10 μl of a 50 ng/ml TNF-α solution, prepared in the phenol-red free DMEM medium was added, and the plates were incubated for an additional 6 hr.
At the end of the TNF-α stimulation, 100 μl of Steady Lite HTS luciferase reagent (Packard Bioscience) was added to each well and the plates were left undisturbed for 10 min at room temperature before measuring the luciferase activity. The relative luciferase units (RLU) were measured by using a Fusion microplate fluorometer (Packard Bioscience).

[3] = tested on: RPMI 8226; assay: Cell growth inhibition (resazurin), RPMI 8226; conditions: for cytotoxicity against RPMI 8226, in words: from EC50 values
[4] = target: T1, chymotrypsin-like activity of purified rabbit muscle 20S proteasome (Oryctolagus cuniculus, UniProt G1T4Q9); assay: In vitro inhibition of 20S proteasome chymotrypsin-like activity (suc-LLVY-AMC)
T1 sequence (G1T4Q9 1-263): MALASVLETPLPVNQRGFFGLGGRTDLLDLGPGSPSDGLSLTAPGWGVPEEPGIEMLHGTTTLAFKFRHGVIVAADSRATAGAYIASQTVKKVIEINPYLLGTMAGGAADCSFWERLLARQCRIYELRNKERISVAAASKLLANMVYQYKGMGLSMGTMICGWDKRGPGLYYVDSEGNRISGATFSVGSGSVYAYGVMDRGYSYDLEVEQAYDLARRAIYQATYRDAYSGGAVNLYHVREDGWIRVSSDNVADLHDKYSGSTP

[5] = target: T2, caspase-like activity of purified rabbit muscle 20S proteasome (Oryctolagus cuniculus, UniProt A0A5F9DQW2); assay: In vitro inhibition of 20S proteasome caspase-like activity (Z-LLE-AMC)
T2 sequence (A0A5F9DQW2 1-212): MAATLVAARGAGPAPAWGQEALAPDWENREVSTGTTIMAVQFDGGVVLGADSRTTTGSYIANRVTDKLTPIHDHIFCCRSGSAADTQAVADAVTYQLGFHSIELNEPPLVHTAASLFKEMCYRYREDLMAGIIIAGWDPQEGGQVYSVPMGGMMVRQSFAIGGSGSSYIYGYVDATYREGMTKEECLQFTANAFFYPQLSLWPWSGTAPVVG

[6] = target: T3, trypsin-like activity of purified rabbit muscle 20S proteasome (Oryctolagus cuniculus, UniProt G1SWK8); assay: biochemical
T3 sequence (G1SWK8 1-271): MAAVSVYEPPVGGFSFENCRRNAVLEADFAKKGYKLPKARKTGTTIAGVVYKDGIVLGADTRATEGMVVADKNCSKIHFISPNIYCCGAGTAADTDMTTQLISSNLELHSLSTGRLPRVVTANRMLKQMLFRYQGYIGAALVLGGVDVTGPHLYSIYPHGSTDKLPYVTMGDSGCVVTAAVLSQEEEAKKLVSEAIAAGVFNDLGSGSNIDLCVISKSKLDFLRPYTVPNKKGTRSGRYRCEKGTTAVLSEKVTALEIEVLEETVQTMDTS

[7] = target: T3, trypsin-like activity of purified rabbit muscle 20S proteasome; assay: In vitro inhibition of 20S proteasome trypsin-like activity (Boc-LRR-AMC); conditions: for inhibition of the trypsin-like activity of the 20S proteasome, in words: under the conditions tested
[8] = Homo sapiens, U-266, 48 h, read-out: U266 EC50, Table 2
[9] = Homo sapiens, HEK293, Table 5, values printed in μM, 1 hr pretreatment, TNF-α 6 hr, read-out: EC50, NF-κB-mediated luciferase reporter gene assay
[10] = Homo sapiens, RPMI-8226, 48 h, read-out: RPMI 8226 EC50, Table 2, 48 hours drug exposure, mean ± SD where n≥3
[11] = read-out: RPMI 8226 EC50, Table 2, 48 hours drug exposure, mean ± SD where n≥3
[12] = EC50 Chymotrypsin-like, Table 6, values in nM
[13] = EC50 values, chymotrypsin-like activity, summary of Table 6
[14] = EC50 Caspase-like, Table 6, values in μM
[15] = EC50 Chymotrypsin-like, Table 6, values in μM
[16] = EC50 values, chymotrypsin-like activity, range or bound stated in text, summary of Table 6
[17] = Table 5, values in μM, 1 hr pretreatment, TNF-α 6 hr, read-out: EC50, NF-κB-mediated luciferase reporter gene assay
[18] = EC50 values, caspase-like activity, range in mixed units, summary of Table 6, range from nM to μM
[19] = Homo sapiens, HEK293, read-out: EC50, NF-κB-mediated luciferase reporter gene assay, Table 5, values in μM, 1 hr pretreatment, TNF-α 6 hr

Row | Compound | EC50 [1, 8] | EC50 [2, 9] | EC50 [3, 10] | cytotoxicity against RPMI 8226, in words [3] | EC50 [3, 11] | EC50 [4, 12] | EC50 [4, 13] | EC50 [5, 14] | EC50 [6] | inhibition of the trypsin-like activity of the 20S proteasome, in words [7] | cytotoxicity against U266, in words [1] | EC50 ([1]; read-out: U266 EC50, Table 2) | effect on luciferase activity upon TNF-α stimulation, in words [2] | other results
1 | C[C@@]12OC(=O)[C@]1(C(O)[C@@H]1C=CCCC1)NC(=O)[C@@H]2CCCl (single isomer, unassigned) [Formula II-25] | > 20000 nM | > 20 µM | > 20000 nM | – | – | – | – | – | – | – | – | – | – | –
2 | CC12OC(=O)C1(CC1C=CCCC1)NC(=O)C2CCCl (centres unmarked) [Formula I-7] | – | – | 240 nM | cytotoxic | 250 nM | 52 ± 2 nM | 13 to 88 nM | – | – | – | – | – | – | –
3 | CC12OC(=O)C1(C(=O)C1C=CCCC1)NC(=O)C2CCCl (centres unmarked) [Formula II-13C] | – | – | – | – | – | – | – | > 20 µM | 8600 nM and 12800 nM | able to inhibit | – | – | – | EC50 [4, 15]: 7600 nM and 8800 nM; EC50 [4, 16]: 1400 to 10600 nM
4 | C[C@@]12OC(=O)[C@]1([C@@H](O)[C@@H]1C=CCCC1)NC(=O)[C@@H]2CCO [Formula II-21] | 6090 nM | 3.2 µM | > 20000 nM | – | – | 8 nM | 2 to 11 nM | 2.6 µM and 2.3 µM | 879 nM | able to inhibit | cytotoxic | 9670 nM | dose-dependent decrease | EC50 [2, 17]: 2.7 µM; EC50 ([2]; Table 12, read-out: NF-κB EC50): 2.71 µM; EC50 [5, 18]: 0.956 to 8.7 µM; EC50 ([5]; Proteasome Caspase-like EC50, Table 12): 2.58 µM and 2.33 µM; EC50 ([3]; Homo sapiens, RPMI-8226, read-out: Cytotoxicity RPMI EC50, Table 12): > 20000 nM; EC50 ([4]; Proteasome Chymotrypsin-like EC50, Table 12): 8 nM; EC50 ([7]; read-out: Proteasome Trypsin-like EC50, Table 12): 879 nM
5 | CCC(=O)OCC[C@H]1C(=O)N[C@@]2([C@@H](O)[C@@H]3C=CCCC3)C(=O)O[C@@]12C [Formula II-22] | – | – | 9720 nM | cytotoxic | 11200 nM | 7 nM and 3 nM | 2 to 11 nM | 1.3 µM and 1.4 µM | 289 nM | able to inhibit | cytotoxic | – | dose-dependent decrease | EC50 ([2]; Homo sapiens, HEK293, read-out: EC50, NF-κB-mediated luciferase reporter gene assay, Table 5, values in nM, 1 hr pretreatment, TNF-α 6 hr): 0.728 µM; EC50 [2, 19]: 1 µM; EC50 [5, 18]: 0.956 to 8.7 µM
6 | CC[C@@]12OC(=O)[C@]1([C@@H](O)[C@@H]1C=CCCC1)NC(=O)[C@@H]2CCCl [Formula II-24C] | 1150 nM | – | 2320 nM | cytotoxic | 1640 nM | – | – | > 20 µM | 3300 nM and 3100 nM | able to inhibit | cytotoxic | 825 nM | dose-dependent decrease | EC50 [2, 19]: 5.3 µM; EC50 [4, 15]: 2000 nM; EC50 [4, 16]: 1400 to 10600 nM
7 | C[C@@]12OC(=O)[C@]1([C@@H](O)[C@@H]1C=CCCC1)NC(=O)[C@H]2CCCl [Formula II-26] | – | 4.3 µM | 2230 nM | cytotoxic | 1610 nM | – | – | – | – | able to inhibit | cytotoxic | 829 nM | dose-dependent decrease | EC50 [2, 17]: 4.1 µM
8 | CC[C@@H]1C(=O)N[C@@]2([C@@H](O)[C@@H]3C=CCCC3)C(=O)O[C@@]12C [Formula II-27] | – | > 20 µM | – | – | – | – | – | – | > 20000 nM | – | – | – | – | –
